Assay results from patent US20110040086A1, “Novel Beta-Lactam Antibiotics, Methods for Their Production, and Their Use” (DRITTE PATENTPORTFOLIO BETEILIGUNGSGESELLSCHAFT MB, priority 2007, published 2011).

Tests used:
[1] = tested on: Enterococcus faecalis 769; experiment: agar diffusion test (Test System II, multi-resistant germs); format: cell-based; parameters: key: r = resistant (no detectable zone of inhibition)
Procedure, shortened: (§1)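 Stepped amounts of each substance (10, 50, 100 μg) were applied to carrier discs from methanol or water according to solubility. These were laid on Müller-Hinton agar II inoculated at McFarland 0.5, and zones of inhibition were read following overnight incubation (18-20 h) at 37 °C.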

[2] = tested on: Staphylococcus aureus 315; experiment: as above; format: cell-based; parameters: key: r = resistant (no detectable zone of inhibition)
Procedure, shortened: as §1

S. aureus 36881 = experiment: as above; format: cell-based, Staphylococcus aureus; parameters: key: r = resistant (no detectable zone of inhibition)
Procedure, shortened: as §1

S. aureus 520 = experiment: as above; format: cell-based, Staphylococcus aureus; parameters: key: r = resistant (no detectable zone of inhibition)
Procedure, shortened: as §1

[3] = tested on: S. aureus North Germany strain; experiment: as above; format: cell-based, Staphylococcus aureus; parameters: key: r = resistant (no detectable zone of inhibition)
Procedure, shortened: as §1

S. aureus 38418 = experiment: as above; format: cell-based, Staphylococcus aureus
Procedure, shortened: as §1

S. aureus ATCC 6538 = experiment: as above; format: cell-based, Staphylococcus aureus
Procedure, shortened: as §1

S. epidermidis 847 = experiment: as above; format: cell-based, Staphylococcus epidermidis; parameters: key: r = resistant (no detectable zone of inhibition)
Procedure, shortened: as §1

S. epidermidis 125 = experiment: as above; format: cell-based, Staphylococcus epidermidis
Procedure, shortened: as §1

[4] = tested on: Staphylococcus aureus ATCC 6538; experiment: mouse infected with Staphylococcus aureus infection model (survival); format: in vivo, BALB/c mice
Experimental: Method for Effectiveness In Vivo with the Mouse Infected with Staphylococcus aureus Model
On Day 0, at least 3 BALB/c mice per test substance (Table 8) or controls are pretreated with cyclophosphamide (250 mg/kg) in 250 μl PBS inta peritoneal (i.p.).
On Day 2, the animals again received 100 mg/kg i.p.
On Day 2, a colony of the test germ is transferred from a growing agar plate (Müller-Hinton-Agar, Beckton Dickinson) into a flask with 10 ml CASO broth (CASO-B., Soyabean peptone-Casein peptone broth, SIFIN, 30 g/l) and is cultivated overnight at 37° C. and a shaking frequency of 250 rpm.
On Day 3, the pre-culture (Vk) is diluted 1:50 with CASO-B and further cultivated ca. 2 hours until an extinction in the medium of 0.6 at a wavelength of 550 nm is reached. Then, it is grown 1× with PBS at room temperature and set again to an extinction of 0.6.
At least 3 animals for a test substance or controls are infected with 10 μl/g body weight grown germs of a bacteria suspension with the extinction 0.6 (ca. 10^10-10^12 CFU, Colony forming units) i.p.
After 30 minutes, antibiotic solution is injected into the mice in a volume of 200 μl PBS with 3% DMSO i.p. 6 hours later, the second antibiotic injection is performed at the same concentration. […]

[5] = logP value by HPLC according to Donovan et al.; settings: HPLC, methanol/0.1% phosphoric acid pH 2
Experimental: • Operating temperature 18-24° C. • Flow 1.5 mL/min • Linear gradient (methanol/0.1% phosphoric acid pH 2) from 10% to 100% methanol in 9.4 min, equilibrium time between 2 runs 6 min
ca. 0.5 mg of analyte is added to 0.5 ml of a standard solution (440 mg methyl phenyl sulfonate and 380 μl toluene in 150 mL methanol). 2 μl of this sample solution is injected.
Because the distribution coefficients of the two standards running in each test are known, the distribution coefficient of the analytes can be determined from the relationships of the analyte/standard retention times.

[6] = tested on: Staphylococcus haemolyticus 535; experiment: agar diffusion test (Test System II, multi-resistant germs); format: cell-based; parameters: key: r = resistant (no detectable zone of inhibition)
Procedure, shortened: as §1

[7] = Quantity n 0.02 mol (first line per ingredient)
[8] = Quantity n 0.1 mol (second line per ingredient)
[9] = Quantity n 0.2 mol (third line per ingredient)

O=C(O)C1=C(Cl)CC2C(=O)C(NC(=O)C(NC3=C(C(=O)NCCO)C(=O)C=CC3=O)c3ccccc3)C2N1 (stereo not shown) [1m, 3-chlorine-7-{2-[2-(2-hydroxyethylcarbamoyl)-3,6-dioxocyclohexa-1,4-dienylamino]-2-phenyl-acetylamino}-8-oxo-5-azabicyclo[4.2.0]oct-3-ene-4-carboxylic acid]
Diameter of zone of inhibition ([1]; Quantity n 0.018): r | Diameter of zone of inhibition ([1]; Quantity n 0.092): r | Diameter of zone of inhibition ([1]; Quantity n 0.18): r | Diameter of zone of inhibition ([2]; Quantity n 0.018): r | Diameter of zone of inhibition ([2]; Quantity n 0.092): r | Diameter of zone of inhibition ([2]; Quantity n 0.18): 8 mm | Diameter of zone of inhibition (S. aureus 36881; Quantity n 0.018): r | Diameter of zone of inhibition (S. aureus 36881; Quantity n 0.092): 16 mm | Diameter of zone of inhibition (S. aureus 36881; Quantity n 0.18): 20 mm | Diameter of zone of inhibition (S. aureus 520; Quantity n [mol] 0.018): r | Diameter of zone of inhibition (S. aureus 520; Quantity n [mol] 0.092): r | Diameter of zone of inhibition (S. aureus 520; Quantity n [mol] 0.18): 8 mm | Diameter of zone of inhibition ([3]; Quantity n 0.018): r | Diameter of zone of inhibition ([3]; Quantity n 0.092): r | Diameter of zone of inhibition ([3]; Quantity n 0.18): 12 mm | Diameter of zone of inhibition (S. aureus 38418; Quantity n [mol] 0.018): 20 mm | Diameter of zone of inhibition (S. aureus 38418; Quantity n [mol] 0.092): 30 mm | Diameter of zone of inhibition (S. aureus 38418; Quantity n [mol] 0.18): >30 mm | Diameter of zone of inhibition (S. aureus ATCC 6538; Quantity n 0.018): 22 mm | Diameter of zone of inhibition (S. aureus ATCC 6538; Quantity n 0.092): >30 mm | Diameter of zone of inhibition (S. aureus ATCC 6538; Quantity n 0.18): >30 mm | Diameter of zone of inhibition (S. epidermidis 847; Quantity n [mol] 0.018): r | Diameter of zone of inhibition (S. epidermidis 847; Quantity n [mol] 0.092): 14 mm | Diameter of zone of inhibition (S. epidermidis 847; Quantity n [mol] 0.18): 18 mm | Diameter of zone of inhibition (S. epidermidis 125; Quantity n 0.018): 20 mm | Diameter of zone of inhibition (S. epidermidis 125; Quantity n 0.092): 26 mm | Diameter of zone of inhibition (S. epidermidis 125; Quantity n 0.18): 28 mm | Survival/tested mice n/n ([4]; 2 × 0.5 mg (25 mg/kg) i.p.): 9/9 | logP value [5]: 1.62

CC1=CC(NC(C(=O)NC2C(=O)N3C(C(=O)O)=C(C)CSC23)c2ccc(O)cc2)=CC(=O)C1=O (stereo not shown) [1q]
Diameter of zone of inhibition, Enterococcus faecalis 769 ([1]; Quantity n 0.02): r^1 | Diameter of zone of inhibition, Enterococcus faecalis 769 ([1]; Quantity n 0.1): r | Diameter of zone of inhibition, Enterococcus faecalis 769 ([1]; Quantity n 0.2): 10 mm | Diameter of zone of inhibition, Staphylococcus aureus 315 ([2]; Quantity n 0.02 mol): r | Diameter of zone of inhibition, Staphylococcus aureus 315 ([2]; Quantity n 0.1 mol): 10 mm | Diameter of zone of inhibition, Staphylococcus aureus 315 ([2]; Quantity n 0.2 mol): 14 mm | Diameter of zone of inhibition [6, 7]: r | Diameter of zone of inhibition [6, 8]: r | Diameter of zone of inhibition [6, 9]: 10 mm | Diameter of zone of inhibition, S. aureas 36881 (S. aureus 36881; Quantity n 0.02 mol): r | Diameter of zone of inhibition, S. aureas 36881 (S. aureus 36881; Quantity n 0.1 mol): r | Diameter of zone of inhibition, S. aureas 36881 (S. aureus 36881; Quantity n 0.2 mol): 10 mm | Diameter of zone of inhibition, S. aureus 520 (S. aureus 520; Quantity n 0.02 mol): r | Diameter of zone of inhibition, S. aureus 520 (S. aureus 520; Quantity n 0.1 mol): r | Diameter of zone of inhibition, S. aureus 520 (S. aureus 520; Quantity n 0.2 mol): 10 mm | Diameter of zone of inhibition, S. aureus North German strain [3, 7]: r | Diameter of zone of inhibition, S. aureus North German strain [3, 8]: 10 mm | Diameter of zone of inhibition, S. aureus North German strain [3, 9]: 12 mm | Diameter of zone of inhibition, S. aureas 38418 (S. aureus 38418; Quantity n 0.02): 10^2 mm | Diameter of zone of inhibition, S. aureas 38418 (S. aureus 38418; Quantity n 0.1): 18 mm | Diameter of zone of inhibition, S. aureas 38418 (S. aureus 38418; Quantity n 0.2): 22 mm | Diameter of zone of inhibition, S. aureus ATCC 6538 (S. aureus ATCC 6538; [7]): 16 mm | Diameter of zone of inhibition, S. aureus ATCC 6538 (S. aureus ATCC 6538; [8]): 20 mm | Diameter of zone of inhibition, S. aureus ATCC 6538 (S. aureus ATCC 6538; [9]): 26 mm | Diameter of zone of inhibition, S. epidermidis 847 (S. epidermidis 847; Quantity n 0.02 (first line per ingredient)): r | Diameter of zone of inhibition, S. epidermidis 847 (S. epidermidis 847; Quantity n 0.1 (second line per ingredient)): 14 mm | Diameter of zone of inhibition, S. epidermidis 847 (S. epidermidis 847; Quantity n 0.2 (third line per ingredient)): 16 mm | Diameter of zone of inhibition, S. epidermidis 125 (S. epidermidis 125; [7]): 12 mm | Diameter of zone of inhibition, S. epidermidis 125 (S. epidermidis 125; [8]): 20 mm | Diameter of zone of inhibition, S. epidermidis 125 (S. epidermidis 125; [9]): 26 mm | Survival/tested mice n/n ([4]; 2 × 0.5 mg (25 mg/kg) i.p.): 3/6 | Survival/tested mice n/n ([4]; 2 × 1.0 mg (50 mg/kg) i.p.): 1/3
